From EP4692071A1, “PHOTOCHROMIC COMPOUND, NAPHTHOL DERIVATIVE, CURABLE COMPOSITION, OPTICAL ARTICLE, LENS, AND EYEGLASS” (TOKUYAMA CORPORATION, priority 2023, dated 2024)
Several values for one entry are separate records, joined by “and”; a condition that tells them apart may be missing. Equal values may be shown once.

Key:
Assay type in all cases: physicochemical
[1] = Maximum absorption wavelength (λmax) after color development, spectrophotometer MCPD3000; conditions: photochromic laminate by coating method, 40 µm photochromic layer on thiourethane lens, 0.25 mmol compound per 100 g monomers
Method in brief: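 Read-out: absorbance at λmax, multichannel photodetector spectrophotometer. Colour density = ε(240) − ε(0), 240 s light, 23°C. τ1/2 = time for ε(240) − ε(0) to halve after light off. Residual rate compares density before and after 90 h xenon weathering.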

[2] = Residual rate (A90/A0×100) after 90 h accelerated deterioration in xenon weather meter X25, color developing durability; conditions: photochromic laminate by coating method; xenon weather meter 90 hours
Method in brief: (§1)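 Photochromic plastic lens samples were irradiated for 240 s at 23°C, and colour density was taken as the absorbance change at the absorption maximum. Fading half-life was timed from the end of irradiation until that absorbance change fell by half. Durability compared colour density before and after xenon-lamp ageing.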

[3] = 23°C color optical density (A23): absorbancy difference ε(240)-ε(0) after 240 s light irradiation at 23°C; conditions: photochromic laminate by coating method, 240 s irradiation, at the maximum absorption wavelength
Method in brief: as §1

[4] = 23°C color fading half-life τ1/2 after 240 s light irradiation
Method: • [1] Maximum Absorption Wavelength (λmax): The maximum absorption wavelength after color development, measured using a spectrophotometer (instantaneous multichannel photodetector MCPD3000) manufactured by Otsuka Electronics Co., Ltd. was used as an indicator for the color tone during the color development. • [2] 23°C Color Optical Density (A23): A difference between an absorbancy measured after light irradiation at 23°C for 240 seconds {ε(240)} and an absorbancy without light irradiation ε(0) at the maximum absorption wavelength was used as an indicator for the color optical density. […] 35°C Color Optical Density (A35): A difference between an absorbancy measured after light irradiation at 35°C for 240 seconds {ε(240)} and an absorbancy without light irradiation ε(0) at the first and second absorption wavelengths was used as an indicator for the color optical density. […] 23°C color fading half-life [τ1/2 (sec.)]: A time required for the absorbancy of the sample at the maximum absorption wavelength to decrease to 1/2 of {ε(240)-ε(0)} when the light irradiation is terminated after the light irradiation at 23°C for 240 seconds, was used as an indicator for the color fading speed. The shorter this time, the higher the color fading speed. • [6] Residual rate (A90/A0×100): The obtained photochromic plastic lens was subjected to accelerated deterioration using a xenon weather meter X25 manufactured by Suga Test Instruments Co., Ltd. for 90 hours. Subsequently, the color optical density was evaluated before and after the test, then a color optical density before the test (A0) and a color optical density after the test (A90) were measured, and a ratio (A90/A0) was defined as a residual rate. The residual rate was used as an indicator for a color developing durability. The higher the residual rate, the higher the color developing durability.

[5] = High-temperature color development rate (A35/A23×100), temperature dependency; conditions: photochromic laminate by coating method
Method in brief: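 Color optical density was taken as the absorbance after 240 seconds of light irradiation, ε(240), minus the absorbance without irradiation, ε(0), at the absorption maximum. It was measured at 23°C (A23) and at 35°C (A35), and the ratio A35/A23×100 served as the high-temperature color development rate, showing temperature dependency.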

[6] = 35°C color optical density (A35): absorbancy difference ε(240)-ε(0) after 240 s light irradiation at 35°C; conditions: photochromic laminate by coating method, 240 s irradiation
Method in brief: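 A photochromic cured product was irradiated with light at 35°C for 240 seconds. The 35°C color optical density (A35) was the absorbancy after irradiation {ε(240)} minus the absorbancy without irradiation ε(0), read at the first and second absorption wavelengths. It served as an indicator of color optical density.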

Structure (SMILES)	Maximum absorption wavelength (nm) ([1]; at 462 nm absorption maximum)	Maximum absorption wavelength (nm) ([1]; at 576 nm absorption maximum)	Residual rate (%) [2]	A23 (-) ([3]; at 462 nm absorption maximum)	A23 (-) ([3]; at 576 nm absorption maximum)	23°C color fading half-life [4]	A35/A23 *100 (%) [5]	A35 (-) ([6]; at 462 nm absorption maximum)	A35 (-) ([6]; at 576 nm absorption maximum)	Maximum absorption wavelength (nm) [1]	A23 (-) [3]	A35 (-) [6]
CCCOc1ccc(C2(c3ccc(OC)cc3)C=Cc3c4c(c5cc(N(c6ccc(C(F)(F)F)cc6)c6ccc(C(F)(F)F)cc6)c(OC)cc5c3O2)-c2ccccc2C4(CCCCOC)CCCCOC)cc1 (stereo not drawn) [Example 11 Formula (63)]	462 nm	576 nm	83%	0.75 -	0.66 -	40 s	61%	0.46 -	0.41 -			
COCCCC1(CCCOC)c2cc(Sc3c(C)cccc3C)ccc2-c2c1c1c(c3cc(OC)c(N(CCOC)c4ccc(C(F)(F)F)cc4)cc23)OC(c2ccc(OC)cc2)(c2ccc(OC)cc2)C=C1 [Example 57 Formula (132)]			77%			47 s	67% and 68%			468 nm and 597 nm	0.66 - and 0.71 -	0.44 - and 0.48 -
CCCCN(c1ccc(C(F)(F)F)cc1)c1cc2c3c(c4c(c2cc1OC)OC(c1ccc(C)cc1)(c1ccc(OC)cc1)C=C4)C1(CCCCCCCCCCC1)c1cc(OC)ccc1-3 (stereo not drawn) [Example 54 Formula (123)]			78%			175 s	74%			453 nm and 583 nm	0.82 - and 1.08 -	0.60 - and 0.80 -
